Laboratory results as given in PubChem BioAssay AID651745 (NMMLSC, 2012).
Calls of active or inactive are those of the source.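 The calls were made as follows: active = GFP positive cell share at least 15% at top dose plus 60%-effect dose below 60 µM; inactive = the rest.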

Tested on: ER-HoxA9 myeloid progenitors, lysozyme-GFP differentiation, flow cytometry
Test: promoters of myeloid differentiation, HoxA9-arrested cells, dose response, cell-based, lysozyme-GFP, flow cytometry, Cherry Pick01 (AID 651745)
Conditions: not given

SMILES | EC50 [µM]
CC(=O)Nc1ccc(C2=CC(=O)C[C@H](c3ccc(Cl)cc3)C2)cc1 | 24.7
O[C@H]1C[C@H](c2ccc(Cl)cc2)N(Cc2cccs2)C[C@@H]1n1cc(C2CC2)nn1 | 4.9
CCCCn1c(N)c(N(CC(C)C)C(=O)Cc2ccc(S(=O)(=O)N3CCOCC3)s2)c(=O)[nH]c1=O | 20.2
O=C(O)c1ccccc1Nc1ccc([N+](=O)[O-])cc1 | 6.05
Cc1ccc(Nc2nc(=O)c3cccnc3s2)c(Br)c1 | 4.47
COC(=O)c1cc2c(=O)c3ccccc3oc2nc1/C=C/N(C)C | 6.88
COc1ccccc1C1N(c2ccc(Cl)cc2)C(=O)C2CCCN21 (stereo not drawn) | 6.47
C/C(=C1/SC(N2CCCC2)=NC1=O)c1ccc(Br)cc1 | 2.08
Cc1cccn2cc(COc3ccc(-c4ccccc4)cc3)nc12 | 2.24
CCC(C)Sc1ccc(-c2nc3cc(C)ccn3c2NC2CCCCC2)cc1 (stereo not drawn) | 21.3
N#C/C(=C\N1CCN(Cc2ccc3c(c2)OCO3)CC1)c1nc2ccccc2s1 | 6.5
Cc1cc(NC(=O)COC(=O)c2c(C)nn(Cc3ccccc3)c2Cl)no1 | 4.44
O=C(CCNC(=O)c1ccc(Br)cc1)NC1CCCc2ccccc21 (stereo not drawn) | 5.32
O=C(O)c1cccnc1Nc1ccc(Cl)cc1 | 5.88
Cn1ccc2c(-c3ccc(C(C)(C)C)cc3)cc3c(c21)C1CCC3O1 (stereo not drawn) | 5.62

Tested on: not listed separately
Test: as above
Conditions: ER-HoxA9 myeloid progenitors, lysozyme-GFP differentiation, flow cytometry; at 2.19 µM (top of the series)

SMILES | percent GFP positive (differentiation)
Cn1c(=O)c2cc(NC(=O)NCc3ccc(F)cc3)ccc2n1C/C=C/c1ccccc1 | 1.7% (inactive)

Same assay, conditions: ER-HoxA9 myeloid progenitors, lysozyme-GFP differentiation, flow cytometry; at 4.37 µM (top of the series)

SMILES | percent GFP positive (differentiation)
Clc1ccc(Cn2ncc3c(N4CCN(c5ccccc5)CC4)ncnc32)cc1 | 1.8% (inactive)
Cc1nn(-c2ccccc2)c(N2CCCC2)c1/C=N/NC(=S)Nc1ccccc1F | 2.2% (inactive)
O=C(NCc1ccccc1)C1=C[C@@H](c2csc3ccccc23)C[C@@H](OCc2ccc(CO)cc2)O1 | 1.2% (inactive)

Same assay, conditions: ER-HoxA9 myeloid progenitors, lysozyme-GFP differentiation, flow cytometry; at 6.6 µM (top of the series)

SMILES | percent GFP positive (differentiation)
Brc1ccc(-c2csc3[n+]2CCCCC3)cc1 | 9.9% (inactive)
c1cc(SC2CCCCC2)cc(-c2nc3cnccn3c2NC2CCCCC2)c1 | 4.8% (inactive)
Cn1cc(-c2cnc3c(NC=O)cc(-c4cccc(C(F)(F)F)c4)cn23)cn1 | 2.3% (inactive)
COc1ccc(NC2=C(NC(C)=O)C(=O)c3ccccc3C2=O)cc1 | 20.3% (inactive)
CCOC(=O)c1c(NC(=O)C(C)OC(=O)c2ccc(NC(=O)CC#N)cc2)sc2c1CCCC2 (stereo not drawn) | 1.6% (inactive)

Same assay, conditions: ER-HoxA9 myeloid progenitors, lysozyme-GFP differentiation, flow cytometry; at 13.2 µM (top of the series)

SMILES | percent GFP positive (differentiation)
O=CNc1ccc2c3c(cccc13)-c1ccccc1-2 | 1.9% (inactive)
COC(=O)C1=C(c2cc3ccccc3s2)C[C@@H]2CC[C@H]1N2C(=O)NC1CCCCC1 | 4.3% (inactive)
Nc1ccc(C#Cc2ccc3c(=O)c4ccccc4oc3c2)cc1 | 15.2% (inactive)
CCC1(c2ccc(F)cc2)NC(=O)N(CC(=O)N2CCN(S(=O)(=O)c3ccc(C)cc3C)CC2)C1=O (stereo not drawn) | 1.95% (inactive)
CCOC(=O)c1c(NC(=O)C(C)Sc2cccc[n+]2[O-])sc2c1CCN(Cc1ccccc1)C2 (stereo not drawn) | 1.7% (inactive)
CCCc1nc2c3ccccc3ccn2c1Cc1ccc(OC)cc1C | 2.2% (inactive)
COc1ccc(/C=C/C(O)=C2/C(=O)N(C)C3(C)CC2c2ccccc2O3)cc1 (stereo not drawn) | 5.7% (inactive)
CCCN1CCc2c(sc(NC(=O)c3ccc(S(=O)(=O)N(C)c4ccccc4)cc3)c2C(=O)NC)C1 | 89.5% (inactive)
CCCCOc1ccc(OC(=O)Nc2cc(Cl)ccc2OC)cc1 | 2.55% (inactive)
CNC(=O)c1c(NC(=O)c2ccc(S(=O)(=O)N3CCCc4ccccc43)cc2)sc2c1CCN(C)C2 | 4.8% (inactive)
CN(Cc1ccc(Cl)c(Cl)c1)C(=O)C1=CC=CN2CCS(=O)(=O)N=C12 | 6.5% (inactive)
C=CCN(c1ccccc1OC)S(=O)(=O)c1ccc(Cl)c(C(=O)NCc2ccco2)c1 | 2.5% (inactive)
C[n+]1c(/C=C/c2ccc3c(c2)OCO3)ccc2ccccc21 | 3.3% (inactive)

Same assay, conditions: ER-HoxA9 myeloid progenitors, lysozyme-GFP differentiation, flow cytometry; at 19.9 µM (top of the series)

SMILES | percent GFP positive (differentiation)
CCOC(=O)C1=C(CN2CCc3ccccc32)NC(=O)NC1c1cccc([N+](=O)[O-])c1 (stereo not drawn) | 10.5% (inactive)
C/C(N)=C(/C#N)C(=O)COC(=O)c1cc(C)n(-c2ccc(F)cc2)c1C | 10.9% (inactive)
Cn1c(-c2ccccc2)c[n+]2c1-c1ccccc1C2 | 3.8% (inactive)
COc1ccc(-n2c(C)cc(/C=C3\SC(=S)N(Cc4ccco4)C3=O)c2C)cc1 | 7.7% (inactive)
CCC(CO)n1c(SCc2cc(=O)oc3cc(C)ccc23)nc2ccccc2c1=O (stereo not drawn) | 2.7% (inactive)
Cc1ccc(OCc2nnc(SCc3nc4ccccc4[nH]3)n2Cc2ccco2)cc1 | 3.4% (inactive)
O=C(CCCN1C(=O)/C(=C/c2ccco2)SC1=S)Nc1cccc(C(=O)O)c1 | 7.4% (inactive)
COc1ccccc1NC(=O)c1cccc(S(=O)(=O)N2CCN(c3ccccc3)CC2)c1 | 4.3% (inactive)
O=c1[nH][nH]cc1C=Nc1ccccc1O | 2.8% (inactive)
Cc1cccn2c(=O)c(/C=C3\SC(=S)NC3=O)c(NCCCN3CCOCC3)nc12 | 33% (inactive)

Same assay, conditions: ER-HoxA9 myeloid progenitors, lysozyme-GFP differentiation, flow cytometry; at 39.8 µM (top of the series)

SMILES | percent GFP positive (differentiation)
COc1ccccc1CN(Cc1nc2ccccc2c(=O)[nH]1)C(=O)Nc1ccc(C)cc1 | 1.4% (inactive)
COc1cccc(NC(=O)[C@H](Cc2c[nH]c3ccccc23)NC(=O)[C@@H]2Cc3ccccc3CN2)c1 | 3.5% (inactive)
O=C(O)c1ccccc1N/N=C/c1c(Sc2nnnn2-c2ccccc2)nc2ccccn2c1=O | 97.5% (inactive)
CCCCN1C(N)=NC[C@@H]1Cc1ccc(O)cc1 | 3.4% (inactive)
Cc1cccc(N2CCN(C(=O)c3ccc4c(c3)OCCO4)CC2)c1C | 2.1% (inactive)
CCOc1ccccc1Nc1nc2ccc(C)cc2n2cnnc12 | 1.4% (inactive)
C#CC[N+](CC)(CC)CC#Cc1ccccc1 | 4.1% (inactive)
COc1ccc(Cn2nnnc2CN2CCc3ccccc32)cc1 | 1.9% (inactive)
N#CC(C#N)=c1ccc2c(c1)N1C(c3ccccc3)=CC(c3ccccc3)C3CCCCC31N=2 (stereo not drawn) | 1% (inactive)
COc1ccc(C)cc1NC(=O)n1ncc2cc(Cl)ccc21 | 2.5% (inactive)
CCS(=O)(=O)c1nc(S(=O)(=O)c2ccc(Cl)cc2)c(N2CCC3(CC2)OCCO3)s1 | 5.1% (inactive)
COc1ccc2ccccc2c1CNC(=O)CC1C(=O)NCCN1CC(C)C (stereo not drawn) | 7% (inactive)
Cc1c(N=C2NN=C(c3c[nH]c4ccccc34)CS2)c(=O)n(-c2ccccc2)n1C | 5.55% (inactive)
O=[N+]([O-])c1ccc(C[n+]2cccc3c4ccccc4ccc32)cc1 | 3.1% (inactive)
CCOC(=O)c1c(NC(=O)c2nn(CC)cc2Br)c(C#N)cn1-c1ccccc1 | 0.4% (inactive)
Cc1ccc(-c2nn3c(C)nnc3s2)cc1NC(=O)CSc1ccc(Cl)cc1 | 0.9% (inactive)
COc1ccc(/C=C/c2cccc[n+]2C)c(O)c1 | 6.2% (inactive)
CC(=O)c1c(NC(=O)c2ccccc2)[nH]c(-c2ccccc2)nc1=S | 4% (inactive)
COc1ccc(NC(=S)N2CCC3CC2c2c(Cl)cccc23)c(OC)c1 (stereo not drawn) | 0.6% (inactive)
CC(=O)c1c(N2CCOCC2)[nH]c(-c2ccccc2)nc1=S | 5.35% (inactive)
C[n+]1ccccc1/C=C/c1ccc2ncccc2c1 | 4.4% (inactive)
